Patent US20250367160A1, “USE OF GUAIJAVERIN IN PREPARATION OF EYE PROTECTION PRODUCT” (Innovation Center of Yangtze River Delta, ZJU, priority 2024, published 2025)

Tested on: ocular apoptotic cells of the zebrafish
Test: Anti-blue light eye protection efficacy, AO staining of ocular apoptotic cells in zebrafish blue light eye damage model
Type: in vivo
Conditions: 62.5 μg/mL, aqueous, 28° C., 1 d, n = 10; model group 45833 ± 4825, normal control 12203 ± 1124
Experimental: Wild-type AB zebrafish at 1 dpf were randomly selected and irradiated with blue light after membrane rupture to establish the zebrafish blue light eye damage model. Model zebrafish with desirable development status were selected at 3 dpf and randomly distributed in 6-well plates, with 30 zebrafish in each well (experimental group) were treated. Different concentrations of guaijaverin (see Table 2 for concentrations) were administered aqueously, and lutein at a concentration of 62.5 μg/mL were used as a positive control, while a normal control group and a model group were also set up, with a volume of 3 mL per well. After 1 d of treatment at 28° C., the zebrafish in each experimental group were stained with AO in the dark for 30 min and washed 3 times with standard dilution water. 10 zebrafish were randomly selected from each experimental group and photographed under a fluorescence microscope. The data were analyzed and collected using Image J software. The fluorescence intensity of ocular apoptotic cells of the zebrafish was statistically analyzed. The anti-blue light eye protection efficacy of guaijaverin was evaluated based on the statistical analysis results of the above indicators. The statistical result was expressed as mean±SE.

CC1=C[C@H](O)CC(C)(C)[C@H]1/C=C/C(C)=C/C=C/C(C)=C/C=C/C=C(C)/C=C/C=C(C)/C=C/C1=C(C)C[C@@H](O)CC1(C)C [Lutein, lutein, reference compound]
Fluorescence intensity of ocular apoptotic cells (pixel, mean ± SE): 21751 ± 2993 pixel
